From patent US20060171983A1, “Use of Vitamin D receptor activators or Vitamin D analogs to treat cardiovascular disease” (priority 2003, published 2006)
Entries after “also recorded” stand apart in the source; their conditions may differ.

How the values were obtained:
24(OH)ase = experiment: Effect of drugs on the expression of 24(OH)ase; format: cell-based; details: relative to calcitriol
Description: Two observations may be noted in these studies: (1) 100% inhibition of growth was never achieved even at 1 μM of any of the test compound. Confocal microscopy studies confirm that, although these drugs are potent in inducing the translocation of VDR from cytoplasm to nucleus, not all cells respond to VDRAs even after 2 h of exposure, which may explain the <100% inhibition. […] Paricalcitol is usually dosed approximately 4 fold higher than calcitriol in the clinical situation, which may translate into a 4-fold higher potency in regulating the function of smooth muscle cells.

PAI-1 = PAI-1 Western blot in primary culture of human coronary artery smooth muscle cells; format: cell-based; details: 24 hr
Description: Human coronary artery smooth muscle cells were incubated with paricalcitol or calcitriol at the indicated concentration for 24 hr at 37° C. Samples were solubilized in SDS-PAGE sample buffer, and the protein content in each sample was determined by the Bio-Rad dye-binding protein assay. Samples were resolved by SDS-PAGE using a 4-12% gel, and proteins were electrophoretically transferred to PVDF membrane for Western blotting. The membrane was blotted for 1 h at 25° C. with 5% nonfat dry milk in PBS-T and then incubated with a mouse anti-PAI-1 monoclonal antibody in PBS-T overnight at 4° C. The membrane was washed with PBS-T and incubated with a horseradish peroxidase-labeled […] antibody for 1 h at 25° C. The membrane was then incubated with detection reagent (SuperSignal WestPico). The specific bands were visualized by exposing the paper to Kodak BioMax films.

[1] = Historical cohort of vascular access changes in HD patients with AV fistula; format: in vivo, human
Description: Methods: A historical cohort of 2112 adult patients new to HD, with an AV fistula as the initial primary vascular access were followed over a 35-month period (January 1999 thru November 2001) using a dialysis provider database. Patients were treated with Zemplar or no vitamin D therapy; patients receiving Zemplar therapy received at least 10 doses and remained on the same therapy. Descriptive summary statistics were used to summarize baseline characteristics and the total number of vascular access changes per year between treatment modalities. In addition, regression models were used to evaluate the association between Zemplar or no vitamin D therapy and the total number of vascular access changes per year.

human CASMC = experiment: 45Ca uptake into primary culture of human coronary artery smooth muscle cells
Description: Primary cultured human CASMC were grown to >80% confluence and used within five passages. Cells were treated with drugs for 5 days in the appropriate medium, and then changed back to base medium (N1: DMEM containing 1.8 mM Ca^+2 and 0.9 mM PO−4) containing 0.2 μCi/ml ^45Ca for 24 hr. Afterwards, cells were washed with PBS three times and radioactivity measured by liquid scintillation.

renin gene promoter = experiment: Renin promoter-luciferase reporter assay; format: cell-based
Text: (§1) Using an in vitro cell culture system, the activity of paricalcitol to suppress renin gene expression was examined using previously published techniques (1,25-Dihydroxyvitamin D3 is a negative endocrine regulator of the renin-angiotensin system, J. Clin. Invest., July 2002). […] This inhibitory effect is confirmed by renin promoter-luciferase reporter assays, which examine the activity of paricalcitol to suppress renin gene transcription.
(§2) In the present study, an investigation was made of the in vitro and in vivo activity of paricalcitol, a FDA-approved low calcemic vitamin D analog, to inhibit renin biosynthesis. To this end, As4.1-hVDR cells, a JG cell-like cell line stably transfected with human VDR, was treated with paricalcitol or 1,25(OH)2D3 at doses ranging from 10^−10 to 10^−7 M for 24 hours, and its renin-inhibiting activity was assessed by Northern blot analyses; the cells were also transfected with renin gene promoter-luciferase reporter plasmid, and luciferase activity was determined in the presence and absence of paricalcitol or 1,25(OH)2D3.

[2] = tested on: renin mRNA expression in As4.1-hVDR cells; experiment: Northern blot of renin mRNA expression in As4.1-hVDR cells; format: cell-based
Text: as §1, §2

renin = experiment: Renin mRNA expression in vitamin D-deficient rats; format: in vivo, rat; details: 0.003-0.3 μg/kg i.p. three times per week, 2 weeks
Description: (§3) Weanling Sprague-Dawley male rats housed in an environment free of UV light were fed a 0.4% Ca, 0.3% P, vitamin D-deficient diet for 5 weeks, then switched to a 0.02% Ca, 0.5% P, vitamin D-deficient diet for 21 days. Rats were dosed with 0.003, 0.01, 0.03, and 0.3 μg/kg of paricalcitol, i.p., three times per week, for the final 2 weeks. A control group of animals was given vehicle only (5% ethanol/95% propylene glycol), and untreated, age-matched animals on normal diet (0.5% Ca, 0.4% P) served as normal peer control. Twenty-four hours after the last dose, the rats were anesthetized with ketamine (100 mg/kg), cardiac bled, killed by CO2, tissues collected for RNA extraction and real-time RT-PCR analysis, and serum taken for determination of calcium, phosphorus, and PTH.

[3] = Renin mRNA expression in vitamin D-deficient rats; format: in vivo, rat; details: 0.003-0.3 μg/kg i.p. three times per week, 2 weeks
Description: as §3

[4] = Dobrez et al. 2004; cited from earlier work
[5] = Active calcium transport in duodenum ex vivo; design: species or system rat; details: uremic rats with SHPT

Q: Which “potency on stimulating the expression of 24(OH)ase” value (24(OH)ase) does the source give for `C[C@H](/C=C/[C@H](C)C(C)(C)O)[C@H]1CC[C@H]2/C(=C/C=C3C[C@@H](O)C[C@H](O)C3)CCC[C@]12C` [paricalcitol] here?
A: less potent than calcitriol

Q: What about the “potency in reducing the PAI level” value (PAI-1) of the same molecule?
A: equally potent

Q: What about the “total number of vascular access changes (average)” value ([1]; HD patients with AV fistula, p=0.0034 vs no D) of the same molecule?
A: 0.6 changes per year

Q: And the “more vascular access changes in No D group than in Zemplar patients” value ([1]; negative binomial regression, p=0.038)?
A: 28%

Q: And the “effect on 45Ca uptake” value (human CASMC; 100 nM, cells in N1 medium or different doses of P1 medium (20-60%))?
A: did not show a significant effect

Q: What about the “effect on 45Ca uptake” value (human CASMC; 1-100 nM, cells in N1 or 60% N1/40% P1 media, 5 days) of the same molecule?
A: no significant effects

Q: What about the “potency in suppressing renin gene promoter activity relative to calcitriol / 1,25(OH)2D3” value (renin gene promoter) of the same molecule?
A: comparable to that of 1,25(OH)2D3; also recorded: at least as potent as calcitriol

Q: What about the “effect on renin gene transcription” value (renin gene promoter; As4.1-hVDR cells) of the same molecule?
A: suppresses

Q: What about the “renin-inhibiting potency relative to calcitriol / 1,25(OH)2D3” value [2] of the same molecule?
A: comparable to that of 1,25(OH)2D3; also recorded: a bit more potent than calcitriol

Q: What about the “effect on renin mRNA expression” value ([2]; 10^-10 to 10^-7 M, 24 hours) of the same molecule?
A: suppresses; also recorded: dose-dependently inhibits

Q: What about the “renal renin mRNA expression” value (renin) of the same molecule?
A: normalized

Q: What about the calcium [3] of the same molecule?
A: did not result in a significant change

Q: What about the “serum PTH” value [3] of the same molecule?
A: reduced serum PTH dose-dependently

Q: What about the “hospitalizations related to cardiovascular events and non-infectious inflammations compared with calcitriol” value [4] of the same molecule?
A: fewer hospitalizations

Q: What about the “active calcium transport in duodenum ex vivo” value [5] of the same molecule?
A: no effect
